The test concerns aldehyde dehydrogenase (Saccharomyces cerevisiae). The test is described as follows: In vitro inhibition against yeast aldehyde dehydrogenase; IA means In active.

Data on 1 compound can be found in ChEMBL document CHEMBL1128376, “Carbethoxylating agents as inhibitors of aldehyde dehydrogenase” (J Med Chem, 1995).

As for `CCOC=O` [ETHOXYCARBONYL GROUP], the IC50 entry is recorded as “Not Active”.
